Reference: patent publication US12668770B2 (priority 2017, dated 2026)

Experiments:
[1] = system: ΔNRT strain (NRT gene-disrupted strain); type: cell-based, Nannochloropsis oculata; set-up: key to viability, ΔNRT strain: −: Not grown; +: Suppressed in growth, (somewhat) dye fading; ++: Suppressed in growth; +++: Fully grown
[2] = system: WT strain of Nannochloropsis oculata NIES-2145; type: cell-based; set-up: key to viability, WT strain: −: Not grown; +: Suppressed in growth, (somewhat) dye fading; ++: Suppressed in growth; +++: Fully grown
[3] = system: ΔNRTΔNR strain (NRT-NR gene-disrupted strain); type: cell-based, Nannochloropsis oculata; set-up: key to viability, ΔNRTΔNR strain: −: Not grown; +: Suppressed in growth, (somewhat) dye fading; ++: Suppressed in growth; +++: Fully grown
[4] = system: ΔNR strain (NR gene-disrupted strain); type: cell-based, Nannochloropsis oculata; set-up: key to viability, ΔNR strain: −: Not grown; +: Suppressed in growth, (somewhat) dye fading; ++: Suppressed in growth; +++: Fully grown

`[K+].[O-][Cl+2]([O-])[O-]` [KClO3, potassium chlorate] was tested, and the “growth of ΔNRT strain (Table 2)” value [1] was “growth was confirmed”, the “growth of ΔNRT strain on chloric acid-containing agar medium (FIG. 7)” value [1] was “growth was also confirmed” and the “viability, ΔNRT strain” value [1] was “− and ++”. For the same molecule, the “growth of WT strain on chloric acid-containing agar medium (FIG. 7)” value [2] was “killed”, the “viability, WT strain” value [2] was “−” and the “growth of ΔNRTΔNR strain (Table 2)” value [3] was “growth was able to be achieved”. For the same molecule, the “growth of ΔNRTΔNR strain on chloric acid-containing agar medium (FIG. 7)” value [3] was “more favorable growth was observed”, the “viability, ΔNRTΔNR strain” value [3] was “+ and +++ and ++” and the “growth of ΔNR strain on chloric acid-containing agar medium (FIG. 7)” value [4] was “growth was unable to be confirmed”. The “viability, ΔNR strain” value [4] was “−”.
